From the supplement of paper PMC10307832

Experiments:
Test in all cases: relative viability (nuclei count vs DMSO), 5 days (fraction); higher = more cells survive
PAC-1 + Bortezomib = compound: C=CCc1cccc(/C=N/NC(=O)CN2CCN(Cc3ccccc3)CC2)c1O [PAC-1] + CC(C)C[C@H](NC(=O)[C@H](Cc1ccccc1)NC(=O)c1cnccn1)B(O)O [Bortezomib] (partner 0.002 µM)
Procedure, shortened: (§1)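 Relative viability equals treated-well nuclei counts divided by vehicle-well nuclei counts. Counts came from 4× images of lung cancer cell lines grown in 1536-well plates for 5 days after pin-tool dosing on the day after seeding. Dosing used one drug alone or a fixed anchor-drug dose plus five library-drug doses (not always all listed) in √10 steps, and values are medians of duplicate plates.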

Ibrutinib + Crizotinib = compound: C=CC(=O)N1CCC[C@@H](n2nc(-c3ccc(Oc4ccccc4)cc3)c3c(N)ncnc32)C1 [Ibrutinib] + C[C@@H](Oc1cc(-c2cnn(C3CCNCC3)c2)cnc1N)c1c(Cl)ccc(F)c1Cl [Crizotinib] (partner 1 µM)
Procedure, shortened: as §1

Ibrutinib + Phenformin = compound: C=CC(=O)N1CCC[C@@H](n2nc(-c3ccc(Oc4ccccc4)cc3)c3c(N)ncnc32)C1 [Ibrutinib] + N=C(N)NC(=N)NCCc1ccccc1 [Phenformin] (partner 250 µM)
Procedure, shortened: as §1

Ibrutinib + Olaparib = compound: C=CC(=O)N1CCC[C@@H](n2nc(-c3ccc(Oc4ccccc4)cc3)c3c(N)ncnc32)C1 [Ibrutinib] + O=C(c1cc(Cc2n[nH]c(=O)c3ccccc23)ccc1F)N1CCN(C(=O)C2CC2)CC1 [Olaparib] (partner 8 µM)
Procedure, shortened: as §1

Row | Cell Line | relative viability (PAC-1 + Bortezomib; first compound 0.02 µM) | relative viability (PAC-1 + Bortezomib; first compound 0.06325 µM) | relative viability (PAC-1 + Bortezomib; first compound 0.2 µM) | relative viability (PAC-1 + Bortezomib; first compound 2 µM) | relative viability (Ibrutinib + Crizotinib; first compound 0.005 µM) | relative viability (Ibrutinib + Crizotinib; first compound 0.01581 µM) | relative viability (Ibrutinib + Crizotinib; first compound 0.05 µM) | relative viability (Ibrutinib + Crizotinib; first compound 0.1581 µM) | relative viability (Ibrutinib + Crizotinib; first compound 0.5 µM) | relative viability (Ibrutinib + Phenformin; first compound 0.005 µM) | relative viability (Ibrutinib + Phenformin; first compound 0.01581 µM) | relative viability (Ibrutinib + Phenformin; first compound 0.05 µM) | relative viability (Ibrutinib + Phenformin; first compound 0.1581 µM) | relative viability (Ibrutinib + Phenformin; first compound 0.5 µM) | relative viability (Ibrutinib + Olaparib; first compound 0.005 µM) | relative viability (Ibrutinib + Olaparib; first compound 0.01581 µM) | relative viability (Ibrutinib + Olaparib; first compound 0.05 µM) | relative viability (Ibrutinib + Olaparib; first compound 0.1581 µM) | relative viability (Ibrutinib + Olaparib; first compound 0.5 µM)
1 | NCI-H1734 | 0.904 | 0.995 | 0.877 | 0.955 | 0.587 | 0.689 | 0.675 | 0.761 | 0.67 | 0.338 | 0.349 | 0.419 | 0.355 | 0.381 | 0.57 | 0.629 | 0.788 | 0.67 | 0.592
2 | A-427 | 1.05 | 1.01 | 0.963 | 0.958 | 0.89 | 0.87 | 1.03 | 0.875 | 0.832 | 0.307 | 0.351 | 0.316 | 0.27 | 0.3 | 0.71 | 0.722 | 0.723 | – | 0.766
3 | NCI-H1437 | 0.513 | 0.525 | 0.414 | 0.383 | 0.848 | 0.874 | 0.901 | 1.02 | 0.916 | 0.352 | 0.3 | 0.318 | 0.317 | 0.314 | 0.681 | 0.626 | 0.721 | 0.641 | 0.628
4 | PC-3 [JPC-3] | 0.83 | 0.789 | 0.774 | 0.877 | 0.988 | 0.907 | 0.975 | 0.987 | 0.6 | 0.47 | 0.452 | 0.467 | 0.473 | 0.391 | 1.21 | 0.996 | 0.93 | 1.29 | 0.523
5 | 201T | 1.08 | 1.15 | 1.13 | 1.05 | 1.03 | 1.02 | 1.03 | 1.04 | 1.04 | 0.449 | 0.443 | 0.442 | 0.429 | 0.412 | 0.844 | 0.848 | 0.841 | 0.816 | 0.793
6 | PC-14 | 0.937 | 0.953 | 0.754 | 0.927 | 0.886 | 0.968 | 0.896 | 0.901 | 0.563 | 0.589 | 0.512 | 0.429 | 0.357 | 0.174 | 0.369 | 0.318 | 0.37 | 0.286 | 0.265
7 | RERF-LC-KJ | 1.15 | 1.16 | 1.08 | 1.17 | 0.865 | 0.742 | 0.825 | 0.889 | 0.815 | 0.394 | 0.389 | 0.379 | 0.407 | 0.356 | 0.994 | 0.863 | 0.89 | 0.965 | 0.868
8 | HCC-15 | 1.03 | 1.11 | 1.01 | 1.04 | 0.889 | 0.785 | 0.873 | 0.828 | 0.837 | 0.571 | 0.477 | 0.524 | 0.408 | 0.53 | 0.835 | 0.724 | 0.75 | 0.846 | 0.773
9 | NCI-H1755 | 0.99 | 0.961 | 0.938 | 0.907 | 0.832 | – | 0.909 | 0.909 | 0.852 | 0.667 | 0.624 | 0.65 | 0.627 | 0.665 | 0.921 | 0.886 | 0.88 | 0.926 | 0.894
10 | NCI-H441 | 0.57 | 0.358 | 0.265 | 0.778 | 0.669 | 0.842 | 0.919 | 0.707 | 0.881 | 1.01 | 0.82 | 0.912 | 0.988 | 1.01 | 0.794 | 0.728 | 0.652 | 0.768 | 0.567
11 | HOP-62 | 0.976 | 0.986 | 0.836 | 0.673 | 0.988 | 0.947 | 1 | 0.948 | – | 0.759 | 0.621 | 0.696 | 0.724 | 0.804 | 0.549 | 0.387 | 0.504 | 0.628 | 0.381
12 | ABC-1 | 0.336 | 0.371 | 0.258 | 0.319 | 1.21 | 1.03 | 1.57 | 1.56 | 1.03 | 0.185 | 0.271 | 0.214 | 0.24 | 0.29 | 0.85 | 0.774 | – | – | 0.844
13 | UMC-11 | 0.693 | 0.55 | 0.605 | 0.782 | 0.538 | 0.598 | 0.596 | 0.681 | 0.57 | 0.29 | 0.312 | 0.316 | 0.337 | 0.362 | 0.338 | 0.392 | 0.538 | 0.663 | 0.377
14 | BEN | 0.742 | 0.77 | 0.797 | 0.725 | 0.952 | 0.962 | 0.803 | 0.67 | 0.943 | – | 0.23 | 0.282 | 0.283 | 0.247 | 0.984 | 1.11 | 1.09 | 1.11 | 1.2
15 | ChaGo-K-1 | 0.941 | 1.1 | 1.16 | 0.88 | 1.18 | 1.05 | 1.16 | – | 1.06 | 0.543 | 0.462 | 0.433 | 0.407 | 0.494 | 0.445 | 0.421 | 0.424 | 0.436 | 0.426
16 | NCI-H520 | 0.716 | 0.624 | 0.607 | 0.421 | 0.725 | 0.578 | 0.727 | 0.704 | 0.861 | 0.431 | 0.606 | 0.583 | 0.634 | 0.356 | 0.417 | 0.334 | 0.377 | 0.298 | 0.35
17 | SK-LU-1 | 0.8 | 1.3 | 1.21 | 1.22 | 0.869 | 0.741 | 1.04 | 1.1 | 0.859 | 0.433 | 0.542 | 0.585 | 0.545 | 0.485 | 0.411 | 0.426 | 0.447 | 0.722 | 0.371
18 | NCI-H2087 | 0.739 | 0.838 | 0.702 | 0.95 | 0.849 | 0.949 | 1.04 | 0.872 | 0.862 | 0.494 | 0.46 | 0.493 | – | 0.427 | 0.602 | 0.715 | 0.691 | – | 0.724
19 | COR-L 105 | 0.71 | 0.695 | 0.757 | 0.792 | 0.654 | 0.846 | 0.472 | 0.9 | 0.235 | 0.455 | 0.348 | 0.406 | 0.531 | 0.242 | 0.663 | 0.683 | 0.717 | 0.755 | 0.46
20 | EKVX | 1.02 | 1.04 | 1.03 | 0.991 | 0.995 | 0.743 | 1.05 | 0.964 | 0.562 | 0.224 | 0.245 | 0.226 | 0.227 | 0.13 | 0.691 | 0.835 | 0.674 | 0.935 | 0.449
21 | NCI-H23 | 0.956 | 1.01 | 0.866 | 0.995 | 0.539 | 0.528 | 0.527 | 0.592 | 0.466 | 0.674 | 0.777 | 0.789 | 0.861 | 0.797 | 0.335 | 0.355 | 0.383 | 0.41 | 0.311
22 | NCI-H1792 | 0.982 | 1.01 | 0.947 | 0.896 | 0.979 | 0.989 | 1.13 | 0.654 | 0.961 | – | 0.449 | – | 0.206 | 0.171 | – | 0.506 | 0.402 | 0.353 | 0.379
23 | NCI-H3122 | 1.03 | 1.05 | 1 | 0.977 | 0.237 | 0.263 | 0.254 | 0.253 | 0.244 | 0.363 | 0.359 | 0.414 | 0.358 | 0.406 | 0.774 | 0.6 | 0.582 | 0.644 | 0.695
